Reference: paper PMC4138991, “Building a Better Dynasore: The Dyngo Compounds Potently Inhibit Dynamin and Endocytosis” (Traffic (Copenhagen, Denmark), 2013)
“Also recorded” adds a separate entry of the source.

Columns and labels:
[1] = biological target: native sheep brain dynamin I (Ovis aries, UniProt A0ACI6PDC7); test: PS liposome-stimulated (helical) dynamin I GTPase assay (Malachite Green); assay type: biochemical; conditions: IC50 with versus without Tween-80
Source text: Recombinant dynamin I was used only for the data in Table 2. The dynamin antibodies were from: Dynamin I—in‐house YF2 antibodies, raised in rabbits against two different synthetic peptides: dynamin I 629‐647 ([…]) and dynamin I 765–778 ([…]), used at 1/2000 dilution, as previously described 53; Dynamin II—Santa Cruz (C‐18, sc‐6400, used at 1/1000) and Dynamin III—Santa Cruz (P‐13, sc‐69472, used at 1/500 dilution).
The Malachite Green colorimetric GTPase assay was as described 10. Dynamin I activity was measured in its SAI activity state or was stimulated by three different methods. As each stimulus activates dynamin to different extents, each assay required different dynamin concentrations. First, maximal dynamin activity was stimulated by sonicated PS liposomes 10. […] Finally, dynamin (500 nM) SAI activity was measured using high concentrations of dynamin, which promote its cooperative self‐assembly into rings (but not helices) 26. […] After the Vmax and Km values were determined, the data were transformed using the Lineweaver–Burke equation, 1/v = 1/Vmax + (Km/Vmax)(1/[S]).

[2] = test system: Tfn-A594 uptake in U2OS cells; test: Automated quantitative CME assay: Tfn-A594 uptake; assay type: cell-based; conditions: for CME IC50 (μM) / IC50: Tfn-A594 uptake, U2OS, 30-min preincubation, serum-free; for IC50: Homo sapiens, read-out: CME IC50
Procedure: To determine whether the Dyngo compounds are widespread cell‐permeable and endocytosis inhibitors, CME of fluorescent Tfn was compared in an automated quantitative endocytosis assay in U2OS cells. The assay consisted of over 1200 cells under serum‐free conditions; after preincubation with each analog for 30 min the uptake of fluorescent Tfn was measured. We refer to this endocytosis as non‐neuronal CME to distinguish it from CME of synaptic vesicles in presynaptic terminals of neurons, which is referred to as synaptic vesicle endocytosis (SVE). In these cells, Tfn uptake is presumed to be mediated by dynamin II, because this is the only isoform of dynamin that they express, as determined by western blot (Figure S6). […] There was no apparent correlation between in vitro and in‐cell activity, with potent dynamin‐active compounds like 1a and 14a having no effect on non‐neuronal CME (Table 1). This might be explained by low membrane permeability of these analogs, their cellular metabolism or rapid cellular efflux mechanisms.
Quantitative analysis of the inhibition of Alexa 594‐Tfn endocytosis in U2OS cells was performed on large numbers of serum‐starved cells as described 10. Synaptic vesicle recycling in cultured CGNs was monitored using FM1‐43 as described 57 (see Supporting Information). Dynamin‐independent endocytosis was measured using internalization of CT in NIH3T3 cells (using Tfn as a control) as described previously 58 with minor changes (see Supporting Information). The average number of cells for each data point was ˜1200. IC50 values were calculated using GraphPad Prism 5 and data were expressed as mean ± 95% confidence interval (CI) for three wells and ˜1200 cells.

dynamin = test system: dynamin; parameters: method as in PMID 19459681; conditions: read-out: dynamin inhibitor potency; cited from earlier work

Chain of native sheep brain dynamin I (A0ACI6PDC7 entry or part of it): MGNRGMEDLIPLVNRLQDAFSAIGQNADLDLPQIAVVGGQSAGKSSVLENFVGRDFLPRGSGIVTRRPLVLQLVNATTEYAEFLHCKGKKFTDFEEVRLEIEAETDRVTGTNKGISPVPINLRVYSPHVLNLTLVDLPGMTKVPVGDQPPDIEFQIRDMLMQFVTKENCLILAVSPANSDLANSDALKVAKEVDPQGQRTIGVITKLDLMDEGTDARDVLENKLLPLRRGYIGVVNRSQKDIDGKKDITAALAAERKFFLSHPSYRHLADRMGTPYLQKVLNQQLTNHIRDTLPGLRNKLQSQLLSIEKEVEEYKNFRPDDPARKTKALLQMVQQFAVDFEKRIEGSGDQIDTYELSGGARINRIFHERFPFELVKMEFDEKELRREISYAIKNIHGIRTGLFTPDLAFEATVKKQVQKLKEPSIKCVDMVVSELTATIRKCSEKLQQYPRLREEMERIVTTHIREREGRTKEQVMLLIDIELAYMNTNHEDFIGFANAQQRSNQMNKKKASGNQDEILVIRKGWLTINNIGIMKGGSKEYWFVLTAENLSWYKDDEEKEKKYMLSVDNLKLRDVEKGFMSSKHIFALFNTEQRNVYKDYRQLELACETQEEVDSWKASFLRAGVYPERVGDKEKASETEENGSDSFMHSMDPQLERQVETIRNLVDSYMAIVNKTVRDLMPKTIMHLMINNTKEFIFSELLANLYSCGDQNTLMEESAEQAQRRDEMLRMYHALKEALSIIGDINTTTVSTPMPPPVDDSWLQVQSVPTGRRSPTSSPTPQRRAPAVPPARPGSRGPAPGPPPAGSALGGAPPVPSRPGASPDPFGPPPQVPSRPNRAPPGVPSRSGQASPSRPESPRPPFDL

O=C(N/N=C/c1ccc(O)cc1O)c1cc2ccccc2cc1O [1a, (E)-N'-(2,4-Dihydroxybenzylidene)-3-hydroxy-2-naphthohydrazide]
detergent (Tween) sensitivity: fold potency change on removal of Tween [1]: < 10 fold | CME IC50 (μM) [2]: little or no effect; also recorded: Not active (n = 3)

O=C(N/N=C/c1ccc(O)c(O)c1O)c1cc2ccccc2cc1O [3a, (E)-3-Hydroxy-N'-(2,3,4-trihydroxybenzylidene) -2-naphthohydrazide]
IC50 [2]: 9.8 ± 1.5 µM

O=C(N/N=C/c1cc(O)c(O)c(O)c1)c1cc2ccccc2cc1O [5a, (E)-3-Hydroxy-N'-(3,4,5-trihydroxybenzylidene) -2-naphthohydrazide]
IC50 [2]: 6.2 ± 2 µM | times more potent than dynasore in CME assay ([2]; same conditions, U2OS Tfn uptake): six times more potent

O=C(N/N=C/c1cc(O)cc(O)c1)c1cc2ccccc2cc1O [8a, (E)-N'-(3,5-Dihydroxybenzylidene)-3-hydroxy-2-naphthohydrazide]
IC50 [2]: 179 ± 20 µM

CC(=O)Nc1ccc(/C=N/NC(=O)c2cc3ccccc3cc2O)cc1 [10a, (E)-N-(4-{[2-(3-hydroxy-2-naphthoyl)hydrazono]methyl}phenyl)acetamide]
CME IC50 (μM) [2]: Not active (n = 2)

Cc1[nH]c2ccccc2c1/C=N/NC(=O)c1cc2ccccc2cc1O [11a, (E)-3-hydroxy-N'-((2-methyl-1H-indol-3-yl)methylene)-2-naphthohydrazide]
IC50 [2]: 63.4 ± 4.4 µM

O=C(NN=Cc1cnc2ccccc2n1)c1cc2ccccc2cc1O [12a, 3-Hydroxynaphthalene-2-carboxylic acid quinoxaline-2-ylmethylenehydrazide]
CME IC50 (μM) [2]: Not active (n = 2)

O=C(N/N=C/c1ccc2nonc2c1)c1cc2ccccc2cc1O [13a, (E)-N'-(benzo[c][1,2,5]oxadiazol-5-ylmethylene)-3-hydroxy-2-naphthohydrazide]
CME IC50 (μM) [2]: Not active (n = 3)

O=C(N/N=C/c1ccc2nsnc2c1)c1cc2ccccc2cc1O [14a, (E)-N'-(benzo[c][1,2,5]thiadiazol-5-ylmethylene)-3-hydroxy-2-naphthohydrazide]
CME IC50 (μM) [2]: no effect; also recorded: Not active (n = 4)

CCCCCCCCNC(=O)C(C#N)=Cc1cn(CCN(C)C)c2ccccc12 [Dynole 34‐2, 2‐cyano‐3‐(1‐(2‐(dimethylamino)ethyl)‐1H‐indol‐3‐yl)‐N‐octylacrylamide]
IC50 (dynamin): 1.3 ± 0.3 µM
